From patent publication US7396851B2, “Heterocyclic and benzoheterocyclic polyamides structurally related to the natural antibiotic distamycin A for the treatment of β-thalassaemia” (priority 2001, dated 2008) come the findings set out here.

Structures can show the parent of a compound that is named as a salt.

Assay [1] concerns human cell line K562. Nature of the assay: Erythroid differentiation of K562 cells (benzidine-positive cells). The assay is classed as cell-based. The note with it: mean±SD of five independent experiments. As to the method: The activity of the distamycin analogues described previously as inducers of erythroid cell differentiation was evaluated by studying the erythroid differentiation induced in human cell cultures.
The biological activity was evaluated by examining the capacity of those compounds to induce erythroid differentiation in the human cell line K562, which is capable of undergoing erythroid differentiation by expressing the genes for γ-globin if subjected to treatment with modifiers of the biological response that are suitable for the purpose (19-24). The level of differentiation was evaluated by analysing the positive reaction of the cells to benzidine (23). Some of the data obtained are given in Table 1, which represents the results of five independent experiments (mean±SD).

For assay [2], the system named is mRNA for γ-globin. Nature of the assay: Expression of genes coding for γ-globins by RT-PCR / Northern blotting in K562 cells. The assay is classed as cell-based, human. The note with it: concentration 50 nM, quantitative RT-PCR, untreated control = 1. On the procedure:
The expression of genes coding for γ-globins was evaluated by RT-PCR (reverse transcriptase PCR) and Northern blotting (25). […] The evaluations were carried out after 6 days' induction with the indicated molecules.
The Technique used is that of quantitative RT-PCR (28, 29) using the following oligonucleotide primers and probe: γ-globin forward primer, 5′-TGGCAAGAAGGTGCTGACTTC-3′; γ-globin reverse primer, 5′-TCA CTC AGC TGG GCA AAG G-3′; probe γ-globin, 5′-FAM-TGGGAGATGCCATAAAGCACCTGG-TAMRA-3′(FAM=6-carboxy fluorescein, TAMRA=6-carboxy-N,N,N′,N′-tetramethylrhodamine).

For `Cl.Cn1cc(NC(=O)c2cc(NC(=O)c3cc(NC(=O)c4ccc(N(CCCl)CCCl)cc4)cn3C)cn2C)cc1C(=O)NCCC(=N)N` [Compound 1, 3-(1-methyl-4-(1-methyl-4-(1-methyl-4-(4-(N,N-bis(2-chloroethyl)amino)benzenecarboxamido)pyrrole-2-carboxamido)pyrrole-2-carboxamido)pyrrole-2-carboxamido)propionamidine hydrochloride], the “erythroid differentiation (%) = percentage of K562 cells that react positively to benzidine” value in assay [1] (concentration 50 nM) amounted to 65.5 ± 8.8%. Besides, the “mRNA for γ-globin, increase compared with untreated control K562 cells” value in assay [2] was found to be 11.5 ± 2.5.
In the case of `CN(C)CCCNC(=O)c1cc2cc(NC(=O)c3cc4cc(NC(=O)c5ccc(N(CCCl)CCCl)cc5)ccc4[nH]3)ccc2o1` [Compound 4, N-(3′-dimethylaminopropyl)-5-(5-(4-(bis(2-chloroethyl)amino)benzoylamino)-1H-indol-2-carboxamido)benzofurane-2-carboxamido hydrochloride], the “erythroid differentiation (%) = percentage of K562 cells that react positively to benzidine” value in assay [1] (concentration 500 nM) worked out at 30 ± 3.8%.
On to `Cn1cc(NC(=O)c2cc(NC(=O)c3cc(NC(=O)c4cc5cc(N(CCCl)CCCl)ccc5o4)cn3C)cn2C)cc1C(=O)NCCC(=N)N` [Compound 3, 3-(1-methyl-4-(1-methyl-4-(1-methyl-4-(5-N,N-bis(2-chloroethyl)aminobenzofurane-2-carboxamido)pyrrole-2-carboxamido)pyrrole-2-carboxamido)pyrrole-2-carboxamido)propionamidine hydrochloride], for which the “erythroid differentiation (%) = percentage of K562 cells that react positively to benzidine” value in assay [1] (concentration 100 nM) turned out to be 72.4 ± 10.2%.
Consider `Cn1cc(NC(=O)c2cc(NC(=O)c3cc(N(CC4CO4)CC4CO4)cn3C)cn2C)cc1C(=O)NCC/C(N)=N/C#N` (stereo not drawn) [Compound 5, 3-(1-methyl-4-(1-methyl-4-(1-methyl-4-(N,N-bis(2-oxiranylmethyl)amino)pyrrole-2-carboxamido)pyrrole-2-carboxamido)pyrrole-2-carboxamido)cyanopropionamidine hydrochloride], for which the “erythroid differentiation (%) = percentage of K562 cells that react positively to benzidine” value in assay [1] (concentration 50 nM) is 77 ± 10.1%.
Same read-out and setting: as for `Cl.Cn1cc(NC(=O)c2cc(NC(=O)c3nc(NC(=O)c4ccc(N(CCCl)CCCl)cc4)cn3C)cn2C)cc1C(=O)NCCC(=N)N` [Compound 2, 3-(1-methyl-4-(1-methyl-4-(1-methyl-4-(4-(N,N-bis(2-chloroethyl)amino)benzenecarboxamido)imidazole-2-carboxamido)pyrrole-2-carboxamido)pyrrole-2-carboxamido)propionamidine hydrochloride], the figure is 85.2 ± 12.8%.
